Drawing on US12471596B2 (priority 2019, dated 2025), this text covers inhibition of growth for 11 molecules.

This assay has as its system Phytophthora infestans. In words: microbe, parasite or virus in culture. Type of assay: cell-based. The note with it: in Secale cereale, 168 h, read-out: control compared to the untreated check.
Regarding `COc1nc(OC)nc(OCC(=O)N2CCC(c3nc(C4=NOC(c5c(F)cccc5F)C4)cs3)CC2)n1` (centres unmarked) [Compound 109, 1-(4-(4-(5-(2,6-difluorophenyl)-4,5-dihydroisoxazol-3-yl)thiazol-2-yl)piperidin-1-yl)-2-((4,6-dimethoxy-1,3,5-triazin-2-yl)oxy)ethan-1-one], the inhibition of growth at 30 ppm is no less than 70%.

For `CS(=O)(=O)Oc1ccc(F)c2c1COC(c1csc(C3CCN(C(=O)COc4nccnc4Cl)CC3)n1)OC2` (centres unmarked) [Compound 155, 3-(2-(1-(2-((3-chloropyrazin-2-yl)oxy)acetyl)piperidin-4-yl)thiazol-4-yl)-9-fluoro-1,5-dihydrobenzo[e][1,3]dioxepin-6-yl methanesulfonate], the inhibition of growth at 30 ppm was no less than 70%. Take `COc1cncnc1OCC(=O)N1CCC(c2nc(C3=NOC(c4c(Cl)ccc(F)c4F)C3)cs2)CC1` (centres unmarked) [Compound 81, 1-(4-(4-(5-(6-chloro-2,3-difluorophenyl)-4,5-dihydroisoxazol-3-yl)thiazol-2-yl)piperidin-1-yl)-2-((5-methoxypyrimidin-4-yl)oxy)ethan-1-one]: the inhibition of growth at 30 ppm was no less than 70%. On to `COc1nc(OC)nc(OCC(=O)N2CCC(c3nc(C4=NOC(c5c(F)cccc5Cl)C4)cs3)CC2)n1` (centres unmarked) [Compound 98, 1-(4-(4-(5-(2-chloro-6-fluorophenyl)-4,5-dihydroisoxazol-3-yl)thiazol-2-yl)piperidin-1-yl)-2-((4,6-dimethoxy-1,3,5-triazin-2-yl)oxy)ethan-1-one], for which the inhibition of growth at 30 ppm is no less than 70%.

As for `COc1ncc(OCC(=O)N2CCC(c3nc(C4=NOC(c5c(O)cccc5Cl)C4)cs3)CC2)cn1` (centres unmarked) [Compound 138, 1-(4-(4-(5-(2-chloro-6-hydroxyphenyl)-4,5-dihydroisoxazol-3-yl)thiazol-2-yl)piperidin-1-yl)-2-((2-methoxypyrimidin-5-yl)oxy)ethan-1-one], the inhibition of growth at 30 ppm is no less than 70%.

As to `COc1cncc(OCC(=O)N2CCC(c3nc(C4=NOC(c5c(Cl)cccc5Cl)C4)cs3)CC2)n1` (centres unmarked) [Compound 99, 1-(4-(4-(5-(2,6-dichlorophenyl)-4,5-dihydroisoxazol-3-yl)thiazol-2-yl)piperidin-1-yl)-2-((6-methoxypyrazin-2-yl)oxy)ethan-1-one], the inhibition of growth at 30 ppm was no less than 70%. `O=C(COc1nccc(C(F)(F)F)n1)N1CCC(c2nc(C3=NOC(c4c(F)cccc4Cl)C3)cs2)CC1` (centres unmarked) [Compound 48, 1-(4-(4-(5-(2-chloro-6-fluorophenyl)-4,5-dihydroisoxazol-3-yl)thiazol-2-yl)piperidin-1-yl)-2-((4-(trifluoromethyl)pyrimidin-2-yl)oxy)ethan-1-one]: the inhibition of growth at 30 ppm was no less than 70%. `COc1ncc(OCC(=O)N2CCC(c3nc(C4=NOC(c5cc(Cl)ccc5Cl)C4)cs3)CC2)cn1` (centres unmarked) [Compound 135, 1-(4-(4-(5-(2,5-dichlorophenyl)-4,5-dihydroisoxazol-3-yl)thiazol-2-yl)piperidin-1-yl)-2-((2-methoxypyrimidin-5-yl)oxy)ethan-1-one]: the inhibition of growth at 30 ppm is no less than 70%. `CSc1nccnc1OCC(=O)N1CCC(c2nc(C3=NOC(c4c(F)cccc4F)C3)cs2)CC1` (centres unmarked) [Compound 140, 1-(4-(4-(5-(2,6-difluorophenyl)-4,5-dihydroisoxazol-3-yl)thiazol-2-yl)piperidin-1-yl)-2-((3-(methylthio)pyrazin-2-yl)oxy)ethan-1-one]: the inhibition of growth at 30 ppm was no less than 70%.

For `N#Cc1cccc(Cl)c1C1CC(c2csc(C3CCN(C(=O)COc4cnc(C(F)(F)F)cn4)CC3)n2)=NO1` (centres unmarked) [Compound 93, 3-chloro-2-(3-(2-(1-(2-((5-(trifluoromethyl)pyrazin-2-yl)oxy)acetyl)piperidin-4-yl)thiazol-4-yl)-4,5-dihydroisoxazol-5-yl)benzonitrile], the inhibition of growth at 30 ppm is no less than 70%.

For `COc1cc(OCC(=O)N2CCC(c3nc(C4=NOC(c5c(Cl)cccc5OS(C)(=O)=O)C4)cs3)CC2)ncn1` (centres unmarked) [Compound 160, 3-chloro-2-(3-(2-(1-(2-((6-methoxypyrimidin-4-yl)oxy)acetyl)piperidin-4-yl)thiazol-4-yl)-4,5-dihydroisoxazol-5-yl)phenyl methanesulfonate], the inhibition of growth at 30 ppm was no less than 70%.
